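Interpolation was linear, between the two tested concentrations surrounding the appropriate level; five concentrations were tested over 48 hours in 96-well plates. Abbreviation: GI50, concentration required for 50% inhibition of growth.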 Calls of active or inactive are those of the source. No stated cut-off is given here; in the data, active = GI50 up to about 1.1 µM and inactive = higher.
What was measured:
Experiment in all cases: inhibition of tumour cell growth, NCI panel, 48 h
HOP-92 = tested on: HOP-92
IGROV-1 = tested on: IGROV-1
MCF7 = tested on: MCF7
MDA-MB-435 = tested on: MDA-MB-435
MOLT-4 = tested on: MOLT-4
NCI-H23 = tested on: NCI-H23
NCI/ADR-RES = tested on: NCI/ADR-RES
OVCAR-3 = tested on: OVCAR-3
OVCAR-5 = tested on: OVCAR-5
OVCAR-8 = tested on: OVCAR-8
PC-3 = tested on: PC-3
RPMI-8226 = tested on: RPMI-8226
SF-268 = tested on: SF-268
SK-MEL-28 = tested on: SK-MEL-28
SK-MEL-5 = tested on: SK-MEL-5
SN12C = tested on: SN12C
SNB-19 = tested on: SNB-19
TK-10 = tested on: TK-10
CAKI-1 = tested on: CAKI-1
HCC 2998 = tested on: HCC 2998

Measured: GI50

CC(=O)OCC(=O)OC[C@H](OCc1ccccc1)[C@@H]1[C@H](OC(C)=O)C(=O)N1Cc1ccccc1
inactive: HOP-92 > 100 µM | IGROV-1 > 100 µM | MCF7 > 100 µM | MDA-MB-435 > 100 µM | MOLT-4 > 100 µM | NCI-H23 > 100 µM | NCI/ADR-RES > 100 µM | OVCAR-3 > 100 µM | OVCAR-5 > 100 µM | OVCAR-8 > 100 µM | PC-3 > 100 µM | RPMI-8226 > 100 µM | SF-268 > 100 µM | SK-MEL-28 > 100 µM | SK-MEL-5 > 100 µM | SN12C > 100 µM | SNB-19 > 100 µM | TK-10 > 100 µM

COc1cc(OC)nc(Nc2c(C#N)c3nc4ccccc4n3c3ccccc23)n1
inactive: CAKI-1 29.1 µM | HCC 2998 > 100 µM | IGROV-1 21.8 µM | MCF7 22.2 µM | MDA-MB-435 > 100 µM | MOLT-4 > 100 µM | NCI-H23 32.1 µM | NCI/ADR-RES 29.8 µM | OVCAR-3 31.3 µM | OVCAR-5 > 100 µM | OVCAR-8 34.9 µM | PC-3 40.3 µM | RPMI-8226 > 100 µM | SF-268 29.9 µM | SK-MEL-28 > 100 µM | SK-MEL-5 > 100 µM | SNB-19 25.1 µM | TK-10 26.5 µM

N#CCCSC(=S)C1CCCC1=N (stereo unspecified)
inactive: CAKI-1 > 100 µM | HOP-92 > 100 µM | IGROV-1 > 100 µM | MCF7 > 100 µM | MDA-MB-435 > 100 µM | MOLT-4 > 100 µM | NCI-H23 > 100 µM | NCI/ADR-RES > 100 µM | OVCAR-3 > 100 µM | OVCAR-5 > 100 µM | OVCAR-8 > 100 µM | PC-3 > 100 µM | RPMI-8226 > 100 µM | SF-268 > 100 µM | SK-MEL-28 > 100 µM | SK-MEL-5 > 100 µM | SN12C > 100 µM | SNB-19 > 100 µM | TK-10 > 100 µM

CC(C)Nc1n[nH]c(=O)n1C(C)C
inactive: CAKI-1 > 100 µM | HOP-92 > 100 µM | IGROV-1 > 100 µM | MCF7 > 100 µM | MDA-MB-435 > 100 µM | MOLT-4 > 100 µM | NCI-H23 > 100 µM | NCI/ADR-RES > 100 µM | OVCAR-3 > 100 µM | OVCAR-5 > 100 µM | OVCAR-8 > 100 µM | PC-3 > 100 µM | RPMI-8226 > 100 µM | SF-268 > 100 µM | SK-MEL-28 > 100 µM | SK-MEL-5 > 100 µM | SN12C > 100 µM | SNB-19 > 100 µM | TK-10 > 100 µM

COc1ccc(N2C(=O)/C(=C\c3cc(OC)c(OC)c(OC)c3)SC2c2ccccc2)cc1 (stereo unspecified)
inactive: CAKI-1 > 100 µM | HCC 2998 > 100 µM | HOP-92 > 100 µM | MCF7 44.2 µM | MDA-MB-435 27.4 µM | MOLT-4 > 100 µM | NCI-H23 33.1 µM | NCI/ADR-RES 34.8 µM | OVCAR-3 > 100 µM | OVCAR-5 > 100 µM | OVCAR-8 95.9 µM | RPMI-8226 31.3 µM | SF-268 > 100 µM | SK-MEL-28 > 100 µM | SK-MEL-5 23.7 µM | SN12C > 100 µM | SNB-19 > 100 µM | TK-10 > 100 µM

COP(=O)(CP(=O)(OC)OCCC(C)CCC=C(C)C)OC (stereo unspecified)
inactive: CAKI-1 > 100 µM | HCC 2998 > 100 µM | IGROV-1 > 100 µM | MCF7 > 100 µM | MDA-MB-435 > 100 µM | MOLT-4 > 100 µM | NCI-H23 > 100 µM | NCI/ADR-RES > 100 µM | OVCAR-3 > 100 µM | OVCAR-5 > 100 µM | OVCAR-8 > 100 µM | PC-3 > 100 µM | SF-268 > 100 µM | SK-MEL-28 > 100 µM | SK-MEL-5 > 100 µM | SN12C > 100 µM | SNB-19 > 100 µM | TK-10 > 100 µM

C/C(=C/CC[C@]1(CO)CC[C@]2(C)[C@H](CC[C@@H]3[C@@]4(C)CC[C@H](OC5OC(CO)C(O)C(O)C5OC5OC(CO)C(O)C(O)C5O)C(C)(C)[C@@H]4CC[C@]32C)[C@H]1O)CO (stereo partly specified)
inactive: CAKI-1 > 100 µM | HOP-92 > 100 µM | IGROV-1 > 100 µM | MCF7 > 100 µM | MDA-MB-435 > 100 µM | MOLT-4 > 100 µM | NCI-H23 > 100 µM | NCI/ADR-RES > 100 µM | OVCAR-3 > 100 µM | OVCAR-5 > 100 µM | OVCAR-8 > 100 µM | PC-3 > 100 µM | RPMI-8226 > 100 µM | SF-268 > 100 µM | SK-MEL-28 > 100 µM | SK-MEL-5 > 100 µM | SN12C > 100 µM | SNB-19 > 100 µM | TK-10 > 100 µM

CCCCS(=O)(=O)CCC(N)C(=O)O (stereo unspecified)
inactive: CAKI-1 > 100 µM | HCC 2998 > 100 µM | IGROV-1 > 100 µM | MCF7 > 100 µM | MOLT-4 > 100 µM | NCI-H23 > 100 µM | NCI/ADR-RES > 100 µM | OVCAR-3 > 100 µM | OVCAR-5 > 100 µM | OVCAR-8 > 100 µM | PC-3 > 100 µM | SF-268 > 100 µM | SK-MEL-28 > 100 µM | SK-MEL-5 > 100 µM | SN12C > 100 µM | SNB-19 > 100 µM | TK-10 > 100 µM

Source: ChEMBL document CHEMBL1201862, “PubChem BioAssay data set” (2004)
